# Source: patent publication US10172378B2, “Mono- or bicyclic carboxylic acids as off-note blockers” (Givaudan, S.A., priority 2007, dated 2019)
# Where two headings read alike, the source gives them in different places.
# Biological target: T1, human TAS2R44 bitter taste receptor (Homo sapiens, UniProt P59538, L162M)
# T1 construct: The TAS2R44 construct contains RSS tag, TAS2R44, and the HSV tag which are fused in frame; expressed in transfected cells; host or cells: HEK293T cells stably expressing Galpha16-gustducin44
# T1 sequence (P59538 with tags, fused parts or gaps L162M): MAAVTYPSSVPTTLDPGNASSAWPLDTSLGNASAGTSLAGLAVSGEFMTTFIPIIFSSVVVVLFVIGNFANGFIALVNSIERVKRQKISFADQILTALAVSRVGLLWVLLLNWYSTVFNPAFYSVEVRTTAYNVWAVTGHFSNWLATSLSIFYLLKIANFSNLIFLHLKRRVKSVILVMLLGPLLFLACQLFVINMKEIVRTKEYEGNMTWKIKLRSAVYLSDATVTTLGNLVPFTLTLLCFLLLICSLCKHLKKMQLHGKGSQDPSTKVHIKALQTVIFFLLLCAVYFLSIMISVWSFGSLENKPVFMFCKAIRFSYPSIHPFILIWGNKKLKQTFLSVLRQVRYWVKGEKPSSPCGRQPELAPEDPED
# Assay: TAS2R44 bitter taste receptor Fluo-4 calcium assay for IC50 determination
# Type: cell-based
# Method: A taste receptor screen and concentration-response analysis was performed and from results inhibitory concentration (IC) IC50 values can be calculated by nonlinear regression using the function f(x)=(a−d)/(1+(x/C)^nh)+d; with a=minimum signal, d=maximum signal, nh=hill coefficient, C=IC50 and x=concentration of antagonist. IC50 is the molar concentration of an antagonist which produces 50% of the maximum possible inhibitory response for that antagonist.
# TAS2R44 Bitter Taste Receptor Assay for IC 50 Determination
# The full length gene of human TAS2R44 was amplified by polymerase chain reaction (PCR) using gene-specific primers that span the entire coding region as described in WO 2004/029087.
# The TAS2R44 cDNA was subcloned into an expression cassette based on either of the following plasmids/expression vectors: pcDNA3.1Zeo (Invitrogen). These vectors contain within their multiple cloning sites the nucleotide sequence coding for the first 45 amino acids of the rat somatostatin receptor subtype 3 (RSS tag) to facilitate cell surface targeting of the transgene (SEQ ID #4) and the nucleotide sequence coding for the herpes simplex virus (HSV) glycoprotein D epitope (HSV epitope in aminoterminal to carboxyterminal direction, HSV tag). (SEQ ID #3) for facilitating immunocytochemical detection.
# The TAS2R44 construct contains RSS tag, TAS2R44, and the HSV tag which are fused in frame to allow translation into the receptor protein and the resulting receptor cDNA.
# This transfected expression vector is called pcDNA3.1Zeo-TAS2R44 (SEQ ID #1) and allows for expression of the TAS2R44 protein (SEQ ID #2).
# A cell line that stably expresses the human bitter taste receptor (TAS2R44) was generated by transfecting pcDNA3.1Zeo-TAS2R44 into HEK293T/Gα16-gustducin 44 cells (both formed as described in under 1) above). The host cell line HEK-293T is commercially available from the American […] (catalog #CRL-1573).
# On day 0, the HEK293T Gα16-gustducin44 cells were seeded in a 6-well plate at a density of 900,000 cells per well and grown over night in selective growth medium (DMEM with 10% (v/v) heat-inactivated fetal bovine serum, 2 mM L-glutamine, 100 units/ml penicillin, 100 μg/ml streptomycin, 200 μg/ml G418 and 200 μg/ml zeocin). On day 1, the medium was exchanged with 2 ml of antibiotic-free and serum-free growth medium. 10 μl Lipofectamine 2000 was dissolved in 250 μl DMEM and incubated for 5 minutes at room temperature. In parallel, 4 μg TAS2R44 vector DNA were dissolved in 250 μl DMEM. These two resulting solutions are mixed and incubated for 20 minutes at room temperature before they are added to the cells into the cell culture medium. After 4 hours, the medium is replaced with antibiotic-free, serum-containing growth medium.
# Fluo-4_AM (Invitrogen) is a fluorescent indicator of intracellular calcium dynamics (change in concentration) and allows monitoring changes in the calcium concentration, particularly an increase in response to receptor activation occurring after agonist exposure.
# At day 0, the HEK293T cell line stably expressing Gα16-gustducin44 and TAS2R44 formed as described under 2) was seeded in antibiotic-free growth medium (standard DMEM with 10% (v/v) heat-inactivated fetal bovine serum, 2 mM L-glutamine […]) into black wall/clear bottom 96-well plates, coated with poly(ethylenimine) (0.005% v/v) at a concentration of 15,000 cells per well and incubated for 48 hours in humidified atmosphere (37° C., 5% CO2).
# At the time of the assay, the growth medium was discarded and the cells were further incubated in a humidified atmosphere (37° C., 5% CO2) for 1 hour with 50 μl of loading buffer consisting of 1.5 μM Fluo-4 AM and […] (Sigma-Aldrich) in DMEM. […]
# [1] = agonist not stated, read-out: IC50 when tested with the TAS2R44 bitter taste receptor
# [2] = Acesulfame K (0.8 mM) as agonist, same range as example 3
# [3] = saccharin (0.5 mM) as agonist, HEK293T cells expressing Gα16-gustducin44 and TAS2R44, read-out: IC50
Compound,IC50 [1] [µM],IC50 [2],IC50 [3] [µM]
CC(C)CCC[C@H]1CC[C@@H](C(=O)O)CC1 [cis-4-(4-methylpentyl)cyclohexanecarboxylic acid],0.1 to 20,,
O=C(O)[C@H]1CC[C@@H](Cc2ccccc2)CC1 [cis-4-benzylcyclohexanecarboxylic acid],0.1 to 20,,
O=C(O)[C@H]1CC[C@@H](c2ccccc2)CC1 [cis-4-phenylcyclohexanecarboxylic acid],0.1 to 20,,
CCC[C@]12CC[C@](C(=O)O)(CC1)CC2 [cis-4-propylbicyclo[2.2.2]octane-1-carboxylic acid],0.1 to 20,,
CCC[C@H]1CC[C@@H](C(=O)O)CC1 [cis-4-propylcyclohexanecarboxylic acid],0.1 to 20,within the same range,0.05 to 25
CCC(C)[C@H]1CC[C@@H](C(=O)O)CC1 (stereo partly drawn) [cis-4-sec-butylcyclohexanecarboxylic acid],0.1 to 20,,
CC(C)(C)[C@H]1CC[C@@H](C(=O)O)CC1 [cis-4-tert-butylcyclohexanecarboxylic acid],0.1 to 20,within the same range,0.05 to 25
